Five compounds from article PMC5920098, “Identification of the allosteric P2X7 receptor antagonist [^11C]SMW139 as a PET tracer of microglial activation” (Scientific Reports, 2018) can be followed below.

The nature of data set [1]: Extended single microdose toxicity study in Wistar rats. Format: in vivo. As to the method: A single microdose toxicity study for P2X7R antagonist SMW139 was performed according to EMEA guideline EMA/CPMP/ICH/286/1995 (December 2009) in healthy Wistar rats (male and female) at a dose of 0.12 mg·kg^−1. Rats were administered SMW139 or vehicle and parameters assessed post-dose were clinical signs and mortality, changes in body weight, food consumption, terminal haematology, coagulation and clinical chemistry parameters, gross pathology and organ weights. Further details are described in the Supplementary Information. […]
Extended single microdose toxicity study
A single microdose toxicity study according to EMEA guideline EMA/CPMP/ICH/286/1995 (December 2009) was performed in healthy Wistar rats at a 1000 times higher dose than the maximal dose […]
minimum specific activity of 18.5 GBq·µmol-1). Animals were allowed to acclimatise for 10 days, group-housed and in an enriched environment with food and water available ad libitum, and with a 12-hour light-dark cycle in a temperature controlled room. Post-dosing, animals were single-housed, but with the ability to communicate. SMW139 was formulated in 6.7% EtOH in acetate/citrate buffer (citric acid monohydrate (8 mg·mL-1), sodium citrate dehydrate (16 mg·mL-1) and sodium acetate trihydrate (7 mg ·mL-1); pH 5.2) with 2.5% Tween-80. Male and female Wistar rats (244-355 g; Charles River, Tranent, Edinburgh, United Kingdom) were injected intravenously via the tail vein under light isoflurane anaesthetics with formulated SMW139 (1 mL·kg-1, corresponding to a single dose of 0.12 mg·kg-1; female n = 10; male n = 10), or vehicle only (1 mL·kg-1; female n = 10; male n = 10) and animals were sacrificed 24 hours (SMW139; female n = 5; male n = 5; vehicle; female n = 5; male n = 5) or 14 days (SMW139; female n = 5; male n = 5; vehicle; female n = 5; male n = 5) post-dose by exsanguination

The target in data set [2] is T1, human P2X7 receptor (hP2X7R) (Homo sapiens, UniProt Q99572).
T1 sequence (Q99572 1-595): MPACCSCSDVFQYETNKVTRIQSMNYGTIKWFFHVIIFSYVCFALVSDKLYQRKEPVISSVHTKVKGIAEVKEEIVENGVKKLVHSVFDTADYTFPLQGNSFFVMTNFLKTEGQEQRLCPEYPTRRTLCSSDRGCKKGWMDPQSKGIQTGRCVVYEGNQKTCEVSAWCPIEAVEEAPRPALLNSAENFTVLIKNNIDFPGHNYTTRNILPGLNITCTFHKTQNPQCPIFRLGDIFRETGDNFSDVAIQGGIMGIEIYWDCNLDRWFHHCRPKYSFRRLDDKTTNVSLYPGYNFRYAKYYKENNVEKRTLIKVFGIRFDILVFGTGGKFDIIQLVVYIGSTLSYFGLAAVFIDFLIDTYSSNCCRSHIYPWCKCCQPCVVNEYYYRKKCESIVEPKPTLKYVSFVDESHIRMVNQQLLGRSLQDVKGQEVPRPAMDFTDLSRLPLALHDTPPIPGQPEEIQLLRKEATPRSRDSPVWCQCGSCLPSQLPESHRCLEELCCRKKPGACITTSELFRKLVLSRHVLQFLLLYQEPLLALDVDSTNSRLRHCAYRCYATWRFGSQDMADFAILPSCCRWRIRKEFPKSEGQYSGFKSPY
As to the kind of experiment: In vitro autoradiography on rat brain cryosections locally overexpressing hP2X7R. Conditions: co-incubation with blocker 10 µM, tracer 28 nM, n = 2.
Description: Snap frozen brain tissue was cut on a cryostat into 20 μm sections.
Stereotactic injection of viral vector
Female Wistar rats (n=7) were anaesthetised by intraperitoneal (i.p.)
injection of ketamine (75 mg·kg-1); Ketalar, Pfizer, Brussels, Belgium) and medetomidin (1 mg·kg-1;
Domitor, Pfizer) and positioned in a stereotactic head frame (Stoelting, Wood Dale, IL, USA). Right and
left striatum were injected with 4 µL of the hP2X7R vector (rAAV_3flag-hP2X7R) and of the control
vector (rAAV_3flag-eGFP), respectively, at a rate of 0.25 µL·min-1, using a 30-gauge needle connected
to a 10 µL Hamilton syringe. Coordinates used for striatal injection of the hP2X7R vector were:
anteroposterior 0 cm, lateral -0.28 cm and dorsoventral -0.64 cm relative to bregma. Coordinates
used for striatal injection of the eGFP vector were: anteroposterior 0 cm, lateral +0.28 cm and
dorsoventral -0.64 cm relative to bregma. After injection, the needle was kept in place for another 5
minutes before removing it slowly. To reverse the anaesthesia, the rats were injected intraperitoneally
with 0.5 mg·kg-1 atipamezol (Antisedan, Orion Pharma, Newburry, Berkshire, UK).
Rats were sacrificed for in
vitro autoradiography at 3 (n=2) and 12 (n=5) weeks after vector injection.
Snap frozen brains of female Wistar rats (rAAV_3flag-hP2X7R in right striatum; rAAV_3flag-eGFP in left
striatum; sacrificed 3 weeks (n = 2) or 12 weeks (n = 5) after vector injection) were cut on a Leica
CM3050 S cryostat (Leica Biosystems, Nussloch, Germany) at -19 °C in transversal sections of 20 µm,
thaw-mounted on SuperFrostTM Plus (Thermo Fisher Scientific, Waltham, MA, USA) object glasses,
dried overnight on silica at 4 °C and then stored at -20 °C until use.
Upon use, sections were thawed to room temperature for an hour
before washing the sections in 5 mM Tris-HCl buffer (pH 7.4) at room temperature (3x 5 min). Sections
were dried in a cold stream of air before incubation (30 min) with 5 mM Tris-HCl buffer (pH 7.4)
concentration. After incubation, sections were washed (3x 1.5 min) in ice-cold 5 mM Tris-HCl buffer
(pH 7.4) followed by a dip in ice-cold demineralised water. Sections were dried in a stream of air and
then exposed to a storage phosphor screen (BAS-IP SR 2040 E, GE Healthcare Europe GmbH,
Eindhoven, the Netherlands) and the screen was read out on a Typhoon FLA 7000 phosphor imager
(GE Healthcare Europe GmbH, Eindhoven, the Netherlands).
quantified using ImageQuantTL Analysis Toolbox (version 8.1, GE Healthcare). In case of the rat brain
sections, regions of interest (ROIs) were defined around the striatum. […] Results are expressed as mean intensity, or as
percentage of tracer binding, relative to total tracer binding in the contralateral striatum. Experiments
with rAAV_3flag-hP2X7R injected rat brains were performed as a duplicate of quadruplicates.
Statistical analysis of quantitative autoradiography data (unpaired t test, two-tailed) was performed

Data set [3] in a line: LogDoct,7.4 by shake-flask method (1-octanol / 0.2 M phosphate buffer pH 7.4). The note with it: mean ± SD, read-out: LogDoct,7.4 (n = 3). The class given is physicochemical. As to the method: The LogDoct,7.4 of analogues [^11C]1–3 and [^11C]SMW139 ([^11C]4) was determined using the shake-flask method (partitioning between 1-octanol and 0.2 M phosphate buffer (pH 7.4)). Determined LogDoct,7.4 values (Table 1) show the same trend as LogD values reported by Wilkinson et al.[10].
LogDoct,7.4 of [^11C]1–3 and [^11C]SMW139 was determined by the shake-flask method as described in the Supplementary Information.
Analytical HPLC chromatogram of [11C]SMW139 formulation (Platinum C18, MeCN/H2O/TFA 45:55:0.1, 1 […]
Determination of LogDoct,7.4
The distribution of radiolabelled compound between 1-octanol and 0.2 M phosphate buffer (pH = 7.4) was measured at room temperature. Briefly, 1 mL of a 20 MBq·mL-1 solution of radiolabelled compound in 0.2 M phosphate buffer (pH = 7.4) was mixed with 1 mL of 1-octanol for 1 min using a vortex mixer. After a settling period of 30 min, three samples of 100 μL were taken from both layers.
All samples were counted for radioactivity in a Wallac Universal Gammacounter 1282 (PerkinElmer, Waltham, MA, USA). The LogDoct,7.4 value was calculated according to LogDoct,7.4 = 10Log(Aoct/Abuffer), where Aoct and Abuffer represent average radioactivity counts of the three 1-octanol and the three […]
(1 picture or pasted object on this page, not shown here)

Data set [4] in a line: Ex vivo metabolite analysis (plasma and brain) in healthy male Wistar rats. More on the design: species or system rat. As to the method: In vivo stability of analogues [^11C]1–3 and [^11C]SMW139 was assessed in healthy male Wistar rats at 15 and 45 minutes after injection of 30–40 MBq of formulated tracer. […] Results obtained in plasma correspond with previously reported stability results in rat liver microsomes. A higher level of intact tracer was found in brain (Table 3) for [^11C]1 and [^11C]SMW139 compared with [^11C]2 and [^11C]3. Despite optimisation of the extraction method, the percentage of total radioactivity that could be extracted from brain homogenates was not optimal for all four compounds (59 ± 6% for [^11C]1; 58 ± 7% for [^11C]2; 61 ± 4% for [^11C]3; 62 ± 3% for [^11C]SMW139). Therefore, based on its highest stability in plasma in vivo, [^11C]SMW139 was selected for further in vivo studies. As imaging studies were performed in female rats, plasma metabolites were also determined in two female rats, and no differences were found between plasma metabolism of [^11C]SMW139 in male and female rats (Table S1; Supplementary Information).
For each of the carbon-11 labelled benzamide analogues [^11C]1–3 and [^11C]SMW139, a biodistribution study and metabolite analysis in healthy male Wistar rats was performed, as described in detail in the Supplementary Information. Briefly, tracer distribution in blood, brain, and peripheral organs was measured at 5, 15, 30 and 45 min after intravenous injection of 13–23 MBq of formulated tracer. Metabolite analysis was performed at 15 and 45 min after intravenous injection of 30–40 MBq of formulated tracer in both blood plasma and brain. […]
Ex vivo metabolite analysis
Healthy male and female Wistar rats (254-440 g) were injected with 30-40 MBq (at start of experiment) of formulated tracer in the tail vein under isoflurane anaesthesia. Rats were sacrificed at 15 and 45 min (n = 3 per time point). Blood samples were obtained and the brain was excised. Blood samples were collected in heparin tubes (BD Vacutainer NH 119 I.U., 7 mL, BD Vacutainer Systems, Plymouth, UK) and centrifuged at 4,000 rpm for 5 min at 4 °C (Hettich Universal 32, Andreas Hettich GmbH & Co.KG, Tuttlingen, Germany). Plasma supernatant was separated from blood cells and loaded onto a tC18 Sep-Pak (Waters, Milford, MA, USA), followed by washing with 3 mL of water to obtain the polar fraction. The non-polar fraction was then eluted with 2 mL of MeOH and 1 mL of water and further analysed by HPLC. The brain was put in a falcon tube containing 4 mL MeCN/H2O (50:50 v/v) and homogenised with a disperser (IKA T18 B Ultra-Turrax, IKA®-Werke GmbH & Co.KG, Staufen, Germany) before centrifugation (5 min, 4,000 rpm, 20 °C, Hettich Universal 32). Supernatant was separated from brain precipitate and analysed by HPLC. Analytical HPLC was performed with Dionex (Sunnyvale, CA, USA) UltiMate 3000 HPLC equipment with Chromeleon software (version 6.8) on a Gemini C18 5-µm (10 x 250 mm) column (Phenomenex, Torrance, CA, USA) with gradient and a mixture of MeCN (A) and 0.1% DIPA in water (B) as eluent according to the following scheme: 0 min, […]
0.25 mL·min-1. All separate fractions were counted for radioactivity in a Wizard Gammacounter 1470 or 2480 (Wallac/PerkinElmer, Waltham, MA, USA).

Setting [5] is: rat plasma, 15 min p.i., male Wistar rats.
[6] abbreviates: rat plasma, 45 min p.i., male Wistar rats.

SMILES strings stand for the structures. Entries after “also recorded” stand apart in the source; their conditions may differ.

`COc1ccc(Cl)c(C(=O)NCC23CC4(F)CC(F)(CC(F)(C4)C2)C3)c1` [SMW139]: in data set [1] (single i.v. dose 0.12 mg·kg^−1), the Food consumption result was “stable in all groups”; the “Haematology, coagulation and clinical chemistry parameters” value was “No treatment-related changes”; the Necropsy findings entry is listed as “no abnormalities suggesting a toxic effect”; the Organ weights entry is “No significant differences in organ weights”. Besides, the “Toxic / clinical effects” value in data set [1] (single i.v. dose 0.12 mg·kg^−1, male and female rats) is “no abnormalities, complications or toxic clinical effects were observed; also recorded: no adverse or toxic effects; also recorded: no toxic effects”. In addition, in data set [1] (single i.v. dose 0.12 mg·kg^−1, p ≥ 0.05), the “Body weight curves vs vehicle” value is “did not differ between vehicle injected animals and animals injected with SMW139”.
Regarding `COc1ccc(CC(=O)NC(NC(=NC#N)Nc2cccc3ncccc23)C(C)(C)C)cc1OC` (stereo not shown) [A-740003, N-(1-{[(Cyanoimino)(5-quinolinylamino)methyl]amino}-2,2-dimethylpropyl)-2-(3,4-dimethoxyphenyl)acetamide, reference compound], the “Block of [^11C]SMW139 binding in rAAV_3flag-hP2X7R striatum” value in data set [2] is 79 ± 10%.
`[11CH3]Oc1ccc(Cl)c(C(=O)NCC23CC4CC(F)(CC(F)(C4)C2)C3)c1` [[^11C]3]: in data set [3], the logD came to 2.71 ± 0.01. The “Intact tracer (%)” value in data set [4] (rat brain, 15 min p.i.) was found to be 62 ± 2%; in data set [4] (rat brain, 45 min p.i.), 32 ± 2%; in data set [4] (setting [5]) it was 35 ± 1%; in data set [4] (setting [6]), 16 ± 1%.
In the same order, the values of `[11CH3]Oc1ccc(Cl)c(C(=O)NCC23CC4CC(CC(F)(C4)C2)C3)c1` [[^11C]2] are 2.93 ± 0.02, 67 ± 5%, 32 ± 4%, 37 ± 7% and 15 ± 2%.
The corresponding values for `[11CH3]Oc1ccc(Cl)c(C(=O)NCC23CC4CC(CC(C4)C2)C3)c1` [[^11C]1] are 2.88 ± 0.14, 82 ± 1%, 76 ± 2%, 37 ± 5% and 25 ± 1%.
